According to ChEMBL document CHEMBL5154741, “Antibacterial alkylguanidino ureas: Molecular simplification approach, searching for membrane-based MoA” (Eur J Med Chem, 2022):
Each block holds one compound with its values, some of them ahead of it. Calls of active or inactive are those of the source. The calls are words filed in the database; no cut-off is given here.

Tests used:
Cell membrane [1] = assay: Disruption of membrane integrity in Pseudomonas aeruginosa ATCC 27853 assessed as increase in PI positive cells at 16 ug/ml measured after 1 hr by SYTO9/PI staining based confocal laser scanning microscope analysis; assay type: subcellular; details: dose 16.0 µg/ml
Cell membrane [2] = assay: Disruption of membrane integrity in Bacillus subtilis ATCC 6633 assessed as increase in PI uptake at 16 ug/ml measured after 1 hr by SYTO9/PI staining based fluorometric analysis; assay type: subcellular; details: dose 16.0 µg/ml
Cell membrane [3] = assay: Disruption of membrane integrity in Acinetobacter baumannii ATCC 17978 assessed as increase in PI uptake at 16 ug/ml measured after 1 hr by SYTO9/PI staining based fluorometric analysis; assay type: subcellular; details: dose 16.0 µg/ml
Cell membrane [4] = assay: Disruption of membrane integrity in Staphylococcus aureus ATCC 25923 assessed as increase in PI uptake at 16 ug/ml measured after 1 hr by SYTO9/PI staining based fluorometric analysis; details: dose 16.0 µg/ml
Cell membrane [5] = assay: Disruption of membrane integrity in Enterococcus faecalis ATCC 19433 assessed as increase in PI uptake at 16 ug/ml measured after 1 hr by SYTO9/PI staining based fluorometric analysis; assay type: subcellular; details: dose 16.0 µg/ml
Lipid bilayer [6] = assay: Binding affinity to bacterial membrane mimic POPG large unilamellar vesicle assessed as bathochromic shift at 125 uM measured at t = 0 by UV-Vis spectrophotometric analysis
Cell membrane [7] = assay: Disruption of membrane integrity in Enterococcus faecalis ATCC 19433 assessed as increase in PI positive cells at 16 ug/ml measured after 1 hr by SYTO9/PI staining based confocal laser scanning microscope analysis; assay type: subcellular; details: dose 16.0 µg/ml
Cell membrane [8] = assay: Disruption of membrane integrity in Bacillus subtilis ATCC 6633 assessed as increase in PI positive cells at 16 ug/ml measured after 1 hr by SYTO9/PI staining based confocal laser scanning microscope analysis; assay type: subcellular; details: dose 16.0 µg/ml
Cell membrane [9] = assay: Disruption of membrane integrity in Acinetobacter baumannii ATCC 17978 assessed as increase in PI positive cells at 16 ug/ml measured after 1 hr by SYTO9/PI staining based confocal laser scanning microscope analysis; details: dose 16.0 µg/ml
[10] = Hemolytic activity against human RBC at 64 ug/ml incubated for 30 mins (reference value: 0%); assay type: toxicity, cell-based, Erythrocyte; details: human red blood cells (erythrocytes), at 64 µg/mL, read-out: Activity
[11] = Hemolytic activity against human RBC at 32 ug/ml incubated for 30 mins (reference value: 0%); assay type: toxicity, cell-based, Erythrocyte; details: human red blood cells (erythrocytes), at 32 µg/mL, read-out: Activity
[12] = Apparent permeability of the compound across bacterial inner membrane mimic pure POPG in PBS buffer assessed as membrane retention at pH 7.4 incubated for 5 hrs by PAMPA based UV-Vis spectrophotometric analysis; assay type: ADME, cell membranes; details: pH 7.4, 5 h
[13] = Hemolytic activity against human RBC at 2 ug/ml incubated for 30 mins (reference value: 0%); assay type: toxicity, cell-based, Erythrocyte; details: human red blood cells (erythrocytes), at 2 µg/mL, read-out: Activity
Cell membrane [14] = assay: Disruption of membrane integrity in Bacillus subtilis ATCC 6633 assessed as increase in PI uptake at 16 ug/ml measured after 15 mins by SYTO9/PI staining based fluorometric analysis; details: dose 16.0 µg/ml
[15] = Hemolytic activity against human RBC at 8 ug/ml incubated for 30 mins (reference value: 0%); assay type: toxicity, cell-based, Erythrocyte; details: human red blood cells (erythrocytes), at 8 µg/mL, read-out: Activity
Cell membrane [16] = assay: Disruption of membrane integrity in Enterococcus faecalis ATCC 19433 assessed as increase in PI uptake at 16 ug/ml measured after 15 mins by SYTO9/PI staining based fluorometric analysis; details: dose 16.0 µg/ml
[17] = Apparent permeability of the compound across bacterial inner membrane mimic POPE/POPG (6:4) in PBS buffer at pH 7.4 incubated for 5 hrs by PAMPA based UV-Vis spectrophotometric analysis; assay type: ADME
Cell membrane [18] = assay: Disruption of membrane integrity in Pseudomonas aeruginosa ATCC 27853 assessed as increase in PI uptake at 16 ug/ml measured after 1 hr by SYTO9/PI staining based fluorometric analysis; assay type: subcellular; details: dose 16.0 µg/ml
Cell membrane [19] = assay: Disruption of membrane integrity in Pseudomonas aeruginosa ATCC 27853 assessed as increase in PI uptake at 16 ug/ml measured every 15 mins for 6 hrs by SYTO9/PI staining based fluorometric analysis; details: dose 16.0 µg/ml
Cell membrane [20] = assay: Disruption of membrane integrity in Staphylococcus aureus ATCC 25923 assessed as increase in PI positive cells at 16 ug/ml measured after 1 hr by SYTO9/PI staining based confocal laser scanning microscope analysis; assay type: subcellular; details: dose 16.0 µg/ml
[21] = Hemolytic activity against human RBC at 16 ug/ml incubated for 30 mins relative to control; assay type: toxicity, cell-based, Erythrocyte; details: human red blood cells (erythrocytes), at 16 µg/mL, read-out: Activity
Cell membrane [22] = assay: Disruption of membrane integrity in Escherichia coli MG1655 assessed as increase in PI uptake at 16 ug/ml measured every 15 mins for 6 hrs by SYTO9/PI staining based fluorometric analysis; details: dose 16.0 µg/ml
[23] = Apparent permeability of the compound across bacterial inner membrane mimic pure POPG in PBS buffer at pH 7.4 incubated for 5 hrs by PAMPA based UV-Vis spectrophotometric analysis; assay type: ADME
Cell membrane [24] = assay: Disruption of membrane integrity in Escherichia coli MG1655 assessed as increase in PI positive cells at 16 ug/ml measured after 1 hr by SYTO9/PI staining based confocal laser scanning microscope analysis; assay type: subcellular; details: dose 16.0 µg/ml
Cell membrane [25] = assay: Disruption of membrane integrity in Acinetobacter baumannii ATCC 17978 assessed as increase in PI uptake at 16 ug/ml measured after 15 mins by SYTO9/PI staining based fluorometric analysis; details: dose 16.0 µg/ml
Cell membrane [26] = assay: Disruption of membrane integrity in Staphylococcus aureus ATCC 25923 assessed as increase in PI uptake at 16 ug/ml measured every 15 mins for 6 hrs by SYTO9/PI staining based fluorometric analysis; assay type: subcellular; details: dose 16.0 µg/ml
Cell membrane [27] = assay: Disruption of membrane integrity in Escherichia coli MG1655 assessed as increase in PI uptake at 16 ug/ml measured after 1 hr by SYTO9/PI staining based fluorometric analysis; assay type: subcellular; details: dose 16.0 µg/ml
[28] = Hemolytic activity against human RBC at 4 ug/ml incubated for 30 mins (reference value: 0%); assay type: toxicity, cell-based, Erythrocyte; details: human red blood cells (erythrocytes), at 4 µg/mL, read-out: Activity
[29] = Apparent permeability of the compound across bacterial inner membrane mimic POPE/POPG (6:4) in PBS buffer assessed as membrane retention at pH 7.4 incubated for 5 hrs by PAMPA based UV-Vis spectrophotometric analysis; assay type: ADME, cell membranes; details: pH 7.4, 5 h
Lipid bilayer [30] = assay: Binding affinity to bacterial membrane mimic POPG large unilamellar vesicle assessed as hyperchromic shift at 125 uM measured after 1 hr by UV-Vis spectrophotometric analysis
[31] = Hemolytic activity against human RBC at 1 ug/ml incubated for 30 mins (reference value: 0%); assay type: toxicity, cell-based, Erythrocyte; details: human red blood cells (erythrocytes), at 1 µg/mL, read-out: Activity
Escherichia coli = assay: Antibacterial activity against Escherichia coli CCUG assessed as bacterial growth inhibition incubated for 18 hrs by micro-dilution broth method; assay type: functional
[32] = Apparent permeability of the compound across bacterial inner membrane mimic PC-phospholipids in PBS buffer assessed as membrane retention at pH 7.4 incubated for 5 hrs by PAMPA based UV-Vis spectrophotometric analysis; assay type: ADME, cell membranes; details: pH 7.4, 5 h
Bacillus subtilis = assay: Antibacterial activity against Bacillus subtilis ATCC 6633 assessed as bacterial growth inhibition incubated for 18 hrs by CLSI based micro-dilution broth method; assay type: functional
Klebsiella pneumoniae = assay: Antibacterial activity against Klebsiella pneumoniae ATCC 13833 assessed as bacterial growth inhibition incubated for 18 hrs by micro-dilution broth method; assay type: functional
[33] = Apparent permeability of the compound across bacterial inner membrane mimic PC-phospholipids in PBS buffer at pH 7.4 incubated for 5 hrs by PAMPA based UV-Vis spectrophotometric analysis; assay type: ADME
Enterococcus faecalis = assay: Antibacterial activity against Enterococcus faecalis ATCC 19433 assessed as bacterial growth inhibition incubated for 18 hrs by micro-dilution broth method; assay type: functional
Pseudomonas aeruginosa = assay: Antibacterial activity against Pseudomonas aeruginosa ATCC 27853 assessed as bacterial growth inhibition incubated for 18 hrs by micro-dilution broth method; assay type: functional
Streptococcus pyogenes = assay: Antibacterial activity against Streptococcus pyogenes ATCC 12344 assessed as bacterial growth inhibition incubated for 18 hrs by micro-dilution broth method; assay type: functional
Staphylococcus aureus = assay: Antibacterial activity against Staphylococcus aureus ATCC 25923 assessed as bacterial growth inhibition incubated for 18 hrs by micro-dilution broth method; assay type: functional
Acinetobacter baumannii = assay: Antibacterial activity against Acinetobacter baumannii ATCC 17978 assessed as bacterial growth inhibition incubated for 18 hrs by micro-dilution broth method; assay type: functional

Activity (Cell membrane [1]): Active | Activity (Cell membrane [2]): Active | Activity (Cell membrane [3]): Active | Activity (Cell membrane [4]): Active | Activity (Cell membrane [5]): Active | Activity (Lipid bilayer [6]): Active | Activity (Cell membrane [7]): Active | Activity (Cell membrane [8]): Active | Activity (Cell membrane [9]): Active | R% [12]: 46.1% | Activity (Cell membrane [14]): Active | Activity (Cell membrane [16]): Active | Papp at 5 h [17]: 0.74 ×10⁻⁶ cm/s | Activity (Cell membrane [18]): Active | Activity (Cell membrane [19]): Active | Activity (Cell membrane [20]): Active | Activity (Cell membrane [22]): Active | Papp at 5 h [23]: 1.88 ×10⁻⁶ cm/s | Activity (Cell membrane [24]): Active | Activity (Cell membrane [25]): Active | Activity (Cell membrane [26]): Active | Activity (Cell membrane [27]): Active | R% [29]: 42.4% | Activity (Lipid bilayer [30]): Active
SMILES: N=C(N)NCCCCCCCCN(CCCCCCCCNC(=N)NCC1CC1)C(=O)N(CCCCCCCCNC(=N)N)CCCCCCCCNC(=N)NCC1CC1
hemolysis at 0.5 h, 64 ug/ml [10]: 3.4% | hemolysis at 0.5 h, 32 ug/ml [11]: 2% | hemolysis at 0.5 h, 2 ug/ml [13]: 0.2% | hemolysis at 0.5 h, 8 ug/ml [15]: 0.8% | hemolysis at 0.5 h, 16 ug/ml [21]: 1.2% | hemolysis at 0.5 h, 4 ug/ml [28]: 0.4% | hemolysis at 0.5 h, 1 ug/ml [31]: 0%

SMILES: N=C(N)NCCCCCCCCN(CCCCCCCCN)C(=O)N(CCCCCCCCN)CCCCCCCCNC(=N)N.O=C(O)C(F)(F)F
Activity (Cell membrane [1]): Active | Activity (Cell membrane [2]): Active | Activity (Cell membrane [3]): Active | Activity (Cell membrane [4]): Active | MIC (Escherichia coli): 2 µg/mL | R% [32]: 36.3% | Activity (Cell membrane [5]): Active | Activity (Lipid bilayer [6]): Active | Activity (Cell membrane [7]): Active | Activity (Cell membrane [8]): Active | Activity (Cell membrane [9]): Active | hemolysis at 0.5 h, 64 ug/ml [10]: 2% | hemolysis at 0.5 h, 32 ug/ml [11]: 1.6% | R% [12]: 52.4% | MIC (Bacillus subtilis): 0.5 µg/mL | MIC (Klebsiella pneumoniae): 16 µg/mL | hemolysis at 0.5 h, 2 ug/ml [13]: 0% | Activity (Cell membrane [14]): Active | Papp at 5 h [33]: 0.21 ×10⁻⁶ cm/s | hemolysis at 0.5 h, 8 ug/ml [15]: 0% | Activity (Cell membrane [16]): Active | Papp at 5 h [17]: 0.18 ×10⁻⁶ cm/s | Activity (Cell membrane [18]): Active | Activity (Cell membrane [19]): Active | MIC (Enterococcus faecalis): 8 µg/mL | MIC (Pseudomonas aeruginosa): 32 µg/mL | Activity (Cell membrane [20]): Active | hemolysis at 0.5 h, 16 ug/ml [21]: 0.6% | Activity (Cell membrane [22]): Active | Papp at 5 h [23]: 0.19 ×10⁻⁶ cm/s | MIC (Streptococcus pyogenes): 0.25 µg/mL | Activity (Cell membrane [24]): Active | Activity (Cell membrane [25]): Active | MIC (Staphylococcus aureus): 0.5 µg/mL | Activity (Cell membrane [26]): Active | Activity (Cell membrane [27]): Active | hemolysis at 0.5 h, 4 ug/ml [28]: 0% | MIC (Acinetobacter baumannii): 16 µg/mL | R% [29]: 47.3% | Activity (Lipid bilayer [30]): Active | hemolysis at 0.5 h, 1 ug/ml [31]: 0%
